Values quoted from earlier work as cited in patent US8242056B2, “Agriculture actives delivery composition comprising boron and persulfate ion-crosslinked polyvinyl alcohol microcapsules and method of use thereof” (Appleton Papers Inc., priority 2008, dated 2012).
Like-named read-outs stand apart in the source and are kept apart here.

Legend:
[1] = half ionized and half un-ionized at its pKa

## COc1cc(OC)nc(NC(=O)NS(=O)(=O)c2ncccc2C(=O)N(C)C)n1 [nicosulfuron]
pH5
  Water solubility: 360 ppm
pH 6.9
  Water solubility: 12,200 ppm
pH 8.8
  Water solubility: 29,200 ppm
[1]
  pKa: 4.3
